# Results as given in US7855076B2, “Use of discoidin domain receptor 1 (DDR1) and agents that affect the DDR1/collagen pathway” (The United States of America as represented by the …, priority 2002, dated 2010).
# Assays:
# DDR1 = DDR1 autophosphorylation and MAP kinase phosphorylation in iDC and mDC; assay type: cell-based, human; details: DCs, TNF-α stimulation
# Procedure: To measure the kinetics of DDR1autophosphorylation, 1×10^7 iDC or TNF-α-induced mDCs were plated on dishes, serum-starved in RPMI 1640 containing 1% FCS for 10 hours, and subsequently activated with agonistic anti-DDR1 IgM (5 μg/ml) or control IgM (5 ug/ml) for varous times. Cell lysates were prepared, DDR1 was immunoprecipitated using anti-DDR1 Ab (C-20), and tyrosine-phosphorylation of DDR1 was analyzed by Western blotting using a mouse monoclonal anti-phosphotyrosine IgG and a sheep anti-mouse IgG coupled with horseradish peroxidase. Peroxidase activity was visualized by the Enhanced Chemiluminescence Detection System (Amersham).
# To detect phosphorylation of MAP kinases, ATF2, or MKK3/6, iDC and mDC were activated with agonistic 513 anti-DDR1 IgM or control IgM for varous times. Since TNF-α is known to activate p38 MAP kinase (Ono and Han, Cell. Signal. 12:1-13, 2000), cells were washed 6 times with PBS before activation in order to minimize the effect of TNF-α. Twenty μl of cell lysates were directly mixed with 20 μl of sample buffer and then analyzed.
# DDR1b = molecular target: T1, DDR1b (Homo sapiens, UniProt Q08345); assay: Autophosphorylation of DDR1b overexpressed in THP-1 cells; assay type: cell-based
# T1 construct: one of the clones, clone 11B, contained the full-length human DDR1b cDNA; expressed in transfected cells; host or cells: THP-1 human monocytic leukemia cells, retroviral vector pLXSN, G418-selected clones
# Procedure: Using the retrovirus-infected cell lines, the effect of collagen type I on the phosphorylation of DDR1 proteins was tested. Two million cells in 3 ml complete medium were added onto collagen type I-coated plastic plates and incubated at 37° C. for various times. Cell lysates were prepared and immunoprecipitation was performed with the anti-DDR1 antibody. One-fourth of the immunoprecipitated samples was subjected to SDS-PAGE and Western blotting. The membranes were blotted with anti-pTyr and anti-DDR1 antibody. Low levels of constitutive autophosphorylation of both receptors were detected. The levels of autophosphorylation increased slightly at 15 minutes and peaked at 90 minutes after activation of the cells on collagen type I-coated plastic plates. The peak level was maintained for up to 240 minutes for DDR1a, which is consistent with the previously reported delayed kinetics of […] autophosphorylation in other cell types (Vogel FASEB J, (Suppl.), S77-S82, 1999). In contrast, autophosphorylation of DDR1b decreased after 90 minutes of collagen-activation.
# Parental, mock, DDR1a- or DDR1b-overexpressing THP-1 cells were plated at 5×10^6/ml on uncoated tissue culture plates and stimulated with PMA (10 nM) for 24 hours, and then starved in RMPI 1640 without FCS for 10 hours. Subsequently cells were washed three times with PBS, and then incubated in the presence of 50 μg/ml collagen type I for various times.
# Ten million cells were lysed on ice for 20 minutes in a buffer containing 50 mM NaCl, 20 mM Tris-HCl, 50 mM sodium fluoride, 30 mM Na4P2O7, 5 mM EGTA, 3 mM sodium orthovanadate, 1% Triton X-100, 1 mg/ml leupeptin, 1 mM PMSF, 1 mg/ml aprotinin, 1 mg/ml pepstatinA and 100 μM sodium orthovanadate treated with H2O2. […]
# Eluted proteins were analyzed on 8% polyacrylamide gels by SDS-PAGE and transferred electrophoretically to nitrocellulose membranes at 150 mA for 1 hour by a semi-dry system. […] To detect phosphorylated or nonphosphorylated p38 MAP kinase or ATF-2, 20 μl of cell lysates were directly mixed with 20 μl of sample buffer and then analyzed.
# IκBα = assay: IκB degradation in PMA-treated THP-1 cells, Western blotting; assay type: cell-based, human; details: 10 nM PMA
# Procedure: Mock-transduced and DDR1b-overexpressing THP-1 cells were plated at 5×10^6cells/ml and treated with 10 nM PMA on collagen-coated plates for varous times. Ten million cells were lysed on ice for 20 minutes in a buffer containing 50 mM NaCl, 20 mM Tris-HCl, 50 mM sodium fluoride, 30 mM Na4P2O7, 5 mM EGTA, 3 mM sodium orthovanadate, 1% Triton X-100; 1 mg/ml leupeptin, 1 mM PMSF, 1 mg/ml aprotinin, 1 mg/ml pepstatin A and 100 μM sodium orthovanadate in […] lysates were spun and the supernatants were collected. Each sample was boiled in double-strength sample buffer for 10 minutes, electrophoresed on 10% polyacrylamide gels by SDS-PAGE, and transferred electrophoretically to nitrocellulose membranes at 150 mA for 1 hour by a semi-dry system. The membranes were incubated with mouse monoclonal anti-IκB antibody followed by sheep anti-mouse IgG coupled with horseradish peroxidase. Peroxidase activity was visualized by the Enhanced Chemiluminescence Detection System (Amersham).
# [1] = PMA-treated cells, 50 μg/ml collagen type I
# T1 sequence (Q08345 19-913): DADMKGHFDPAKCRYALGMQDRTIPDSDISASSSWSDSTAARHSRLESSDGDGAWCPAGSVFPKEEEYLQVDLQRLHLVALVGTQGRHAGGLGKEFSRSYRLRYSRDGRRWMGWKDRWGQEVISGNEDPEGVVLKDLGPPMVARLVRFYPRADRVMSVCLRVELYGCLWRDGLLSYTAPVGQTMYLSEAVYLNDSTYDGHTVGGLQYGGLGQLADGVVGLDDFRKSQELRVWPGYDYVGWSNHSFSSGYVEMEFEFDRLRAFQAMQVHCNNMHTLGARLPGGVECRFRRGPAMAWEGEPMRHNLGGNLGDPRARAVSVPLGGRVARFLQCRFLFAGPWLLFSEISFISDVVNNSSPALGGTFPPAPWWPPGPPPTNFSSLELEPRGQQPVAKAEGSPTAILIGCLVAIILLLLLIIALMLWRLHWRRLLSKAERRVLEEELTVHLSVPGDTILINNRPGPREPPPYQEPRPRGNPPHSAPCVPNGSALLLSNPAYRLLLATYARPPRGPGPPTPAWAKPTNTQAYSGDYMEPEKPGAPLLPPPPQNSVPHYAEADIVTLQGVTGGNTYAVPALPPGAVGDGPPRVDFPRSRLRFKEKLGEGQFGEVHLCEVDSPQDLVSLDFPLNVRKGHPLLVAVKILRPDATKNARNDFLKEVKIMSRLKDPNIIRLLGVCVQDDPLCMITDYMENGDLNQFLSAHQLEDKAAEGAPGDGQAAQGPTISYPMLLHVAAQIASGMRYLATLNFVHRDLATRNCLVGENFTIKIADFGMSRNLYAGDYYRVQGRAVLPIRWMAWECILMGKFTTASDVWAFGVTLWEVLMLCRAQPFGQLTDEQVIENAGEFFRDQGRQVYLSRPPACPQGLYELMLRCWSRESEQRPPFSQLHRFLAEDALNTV
# DDR1, sequence (Q08345 19-417 limits assumed): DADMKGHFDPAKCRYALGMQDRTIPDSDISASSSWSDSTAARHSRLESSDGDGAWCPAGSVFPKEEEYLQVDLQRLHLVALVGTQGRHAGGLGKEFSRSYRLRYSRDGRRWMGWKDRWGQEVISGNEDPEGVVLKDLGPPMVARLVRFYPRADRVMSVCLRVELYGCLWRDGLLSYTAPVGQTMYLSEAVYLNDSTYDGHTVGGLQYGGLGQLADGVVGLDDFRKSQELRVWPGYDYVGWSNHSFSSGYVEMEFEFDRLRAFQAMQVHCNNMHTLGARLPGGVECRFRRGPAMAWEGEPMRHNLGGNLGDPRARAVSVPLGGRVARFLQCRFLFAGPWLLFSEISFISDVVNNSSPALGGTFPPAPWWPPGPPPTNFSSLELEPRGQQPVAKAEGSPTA
Substance,"activation of ERK1, ERK2, JNK, MKK3/6 (DDR1)",time autophosphorylation detectable (DDR1b; [1]) [min],time of peak autophosphorylation (DDR1b; [1]) [min],"time of peak autophosphorylation (DDR1b; collagen type I-coated plates, cells not PMA-treated) [min]","amounts of IκBα (IκBα; DDR1b-overexpressing cells, at 2 and 3 hours)",level of IκBα (IκBα; mock-transduced cells)
TNF-α,rapidly activated,,,,,
collagen,,30,60,90,decreased,unchanged
